From patent US8114867B2, “Oxazolidinone antibiotic derivatives” (Actelion Pharmaceuticals Ltd, priority 2007, dated 2012)
≈ marks a conversion by molar mass, not a printed value.

tested on: S. aureus 29213; experiment: MIC by broth microdilution (NCCLS), S. aureus 29213; type: cell-based; settings: Staphylococcus aureus, strain S. aureus 29213, cation-adjusted Mueller-Hinton Broth, pH 7.2-7.3
Method: These assays have been performed following the description given in “Methods for dilution Antimicrobial Susceptibility Tests for Bacteria that Grow Aerobically, 4th ed.; Approved standard: NCCLS Document M7-A4; National Committee for Clinical Laboratory Standards: Villanova, Pa., USA, 1997”. Minimal inhibitory concentrations (MICs; mg/l) were determined in cation-adjusted Mueller-Hinton Broth (BBL) by a microdilution method following NCCLS guidelines (National Committee for Clinical Laboratory Standards. Methods for Dilution Antimicrobial Susceptibility). The pH of the test medium was 7.2-7.3.

Row | MIC [µg/mL] | Compound
1 | ≤ 0.063 | COc1ccc2ncc(F)c(CN(CCCC3CN(c4ccc5c(c4)NC(=O)CS5)C(=O)O3)C[C@@H](O)CCl)c2n1 (mixture of isomers) [Example 152, 6-((RS)-5-{3-[((R)-3-chloro-2-hydroxy-propyl)-(3-fluoro-6-methoxy-[1,5]naphthyridin-4-ylmethyl)-amino]-propyl}-2-oxo-oxazolidin-3-yl)-4H-benzo[1,4]thiazin-3-one]
2 | ≤ 0.063 | COc1ccc2ncc(F)c(CCCN(C[C@H](O)CO)C[C@@H]3CN(c4ccc5c(c4)OCCO5)C(=O)O3)c2n1 [Example 135, (R)-3-(2,3-dihydro-benzo[1,4]dioxin-6-yl)-5-({((S)-2,3-dihydroxy-propyl)-[3-(3-fluoro-6-methoxy-[1,5]naphthyridin-4-yl)-propyl]-amino}-methyl)-oxazolidin-2-one]
3 | ≤ 0.063 | COC(=O)CCN(CCCC1CN(c2ccc3c(c2)NC(=O)CS3)C(=O)O1)Cc1ccnc2ccc(OC)nc12 (racemic) [Example 171, rac-3-((6-methoxy-[1,5]naphthyridin-4-ylmethyl)-{3-[2-oxo-3-(3-oxo-3,4-dihydro-2H-benzo[1,4]thiazin-6-yl)-oxazolidin-5-yl]-propyl}-amino)-propionic acid methyl ester]
4 | ≤ 0.063 | COc1ccc2nccc(CC[C@@H](O)CC[C@@H]3CN(c4ccc5c(c4)NC(=O)CS5)C(=O)O3)c2n1 (racemic) [Example 122, 6-{(RS)-5-[(RS)-3-hydroxy-5-(6-methoxy-[1,5]naphthyridin-4-yl)-pentyl]-2-oxo-oxazolidin-3-yl}-4H-benzo[1,4]thiazin-3-one]
5 | 0.125 (≈ 0.226 µM) | COCCOc1ccc(CNCCCC2CN(c3ccc4c(c3)NC(=O)CS4)C(=O)O2)c2nc(OC)cnc12 (racemic) [Example 157, rac-6-[5-(3-{[3-methoxy-8-(2-methoxy-ethoxy)-quinoxalin-5-ylmethyl]-amino}-propyl)-2-oxo-oxazolidin-3-yl]-4H-benzo[1,4]thiazin-3-one]
6 | ≤ 0.063 | COc1ccc2ncc(F)c(CN(CCO)CCC[C@@H]3CN(c4ccc5c(c4)NC(=O)CO5)C(=O)O3)c2n1 [Example 179, 6-((R)-5-{3-[(3-fluoro-6-methoxy-[1,5]naphthyridin-4-ylmethyl)-(2-hydroxy-ethyl)-amino]-propyl}-2-oxo-oxazolidin-3-yl)-4H-benzo[1,4]oxazin-3-one]
7 | ≤ 0.063 | COc1ccc2nccc(CCCC[C@@H](O)[C@H]3CN(c4ccc5c(c4)OCCO5)C(=O)O3)c2n1 (relative stereo) [Example 111, (R*)-3-(2,3-dihydro-benzo[1,4]dioxin-6-yl)-5-[(R*)-1-hydroxy-5-(6-methoxy-[1,5]naphthyridin-4-yl)-pentyl]-oxazolidin-2-one]
8 | ≤ 0.063 | COc1ccc2nccc(CCC[C@@H](O)C[C@@H]3CN(c4ccc5c(c4)OCCO5)C(=O)O3)c2n1 (racemic) [Example 123, (RS)-3-(2,3-dihydro-benzo[1,4]dioxin-6-yl)-5-[(RS)-2-hydroxy-5-(6-methoxy-[1,5]naphthyridin-4-yl)-pentyl]oxazolidin-2-one]
9 | ≤ 0.063 | O=C1CSc2ccc(N3CC(CCCNCc4cccc5ccccc45)OC3=O)cc2N1 (racemic) [Example 155, rac-6-(5-{3-[(naphthalen-1-ylmethyl)-amino]-propyl}-2-oxo-oxazolidin-3-yl)-4H-benzo[1,4]thiazin-3-one]
10 | ≤ 0.063 | COC(=O)c1ccc(CNCCCC2CN(c3ccc4c(c3)NC(=O)CS4)C(=O)O2)c2nc(OC)ccc12 (racemic) [Example 156, rac-2-methoxy-8-({3-[2-oxo-3-(3-oxo-3,4-dihydro-2H-benzo[1,4]thiazin-6-yl)-oxazolidin-5-yl]-propylamino}-methyl)-quinoline-5-carboxylic acid methyl ester]
11 | ≤ 0.063 | COc1ccc2nccc(CC[C@@H](N)CC[C@@H]3CN(c4ccc5c(c4)OCCO5)C(=O)O3)c2n1 (racemic) [Example 116, (RS)-5-[(RS)-3-amino-5-(6-methoxy-[1,5]naphthyridin-4-yl)-pentyl]-3-(2,3-dihydro-benzo[1,4]dioxin-6-yl)-oxazolidin-2-one]
12 | ≤ 0.063 | COc1ccc2nccc(CCCCC[C@@H]3CN(c4ccc5c(c4)NC(=O)CS5)C(=O)O3)c2n1 [Example 125, 6-{(R)-5-[5-(6-methoxy-[1,5]naphthyridin-4-yl)-pentyl]-2-oxo-oxazolidin-3-yl}-4H-benzo[1,4]thiazin-3-one]
13 | ≤ 0.063 | COc1ccc2nccc(CCCCNC[C@@H]3CN(c4ccc5c(c4)NC(=O)CS5)C(=O)O3)c2n1 [Example 113, 6-((R)-5-{[4-(6-methoxy-[1,5]naphthyridin-4-yl)-butylamino]-methyl}-2-oxo-oxazolidin-3-yl)-4H-benzo[1,4]thiazin-3-one]

More lines, now with the values behind:

Row | Compound | MIC [µg/mL]
14 | COc1ccc2nccc(CCN(C)C[C@@H](O)[C@H]3CN(c4ccc5c(c4)OCCO5)C(=O)O3)c2n1 (relative stereo) [Example 99, (R*)-3-(2,3-dihydro-benzo[1,4]dioxin-6-yl)-5-((R*)-1-hydroxy-2-{[2-(6-methoxy-[1,5]naphthyridin-4-yl)-ethyl]-methyl-amino}-ethyl)-oxazolidin-2-one] | ≤ 0.063
15 | N#Cc1ccc2cccc(/C=C/C(=O)NC[C@@H]3CN(c4ccc5c(c4)OCCO5)C(=O)O3)c2n1 [Example 16, (E)-3-(2-cyano-quinolin-8-yl)-N-[(R)-3-(2,3-dihydro-benzo[1,4]dioxin-6-yl)-2-oxo-oxazolidin-5-ylmethyl]-acrylamide] | 0.125 (≈ 0.274 µM)
16 | COc1ccc2ncc(F)c(C(O)CCCCC3CN(c4ccc5c(c4)OCCO5)C(=O)O3)c2n1 (stereo not shown) [Example 62, 3-(2,3-dihydro-benzo[1,4]dioxin-6-yl)-5-[5-(3-fluoro-6-methoxy-[1,5]naphthyridin-4-yl)-5-hydroxy-pentyl]-oxazolidin-2-one] | ≤ 0.063
17 | COc1cnc2cccc(CCCNC[C@@H]3CN(c4ccc5c(c4)NC(=O)CS5)C(=O)O3)c2c1 [Example 35, 6-((R)-5-{[3-(3-methoxy-quinolin-5-yl)-propylamino]-methyl}-2-oxo-oxazolidin-3-yl)-4H-benzo[1,4]thiazin-3-one] | ≤ 0.063
18 | COc1ccc2ncc(F)c(CNCC[C@@H](N)[C@@H]3CN(c4ccc5c(c4)OCCO5)C(=O)O3)c2n1 (relative stereo) [Example 107, (S*)-5-{(R*)-1-amino-3-[(3-fluoro-6-methoxy-[1,5]naphthyridin-4-ylmethyl)-amino]-propyl}-3-(2,3-dihydro-benzo[1,4]dioxin-6-yl)-oxazolidin-2-one] | ≤ 0.063
19 | COc1ccc2nccc(CCNC[C@@H](O)[C@H]3CN(c4ccc5c(c4)OCCO5)C(=O)O3)c2n1 (relative stereo) [Example 97, (R*)-3-(2,3-dihydro-benzo[1,4]dioxin-6-yl)-5-{(R*)-1-hydroxy-2-[2-(6-methoxy-[1,5]naphthyridin-4-yl)-ethylamino]-ethyl}-oxazolidin-2-one] | ≤ 0.063
20 | COc1ccc2nccc(/C=C/C(=O)N(C)C[C@@H]3CN(c4ccc(Br)c(F)c4)C(=O)O3)c2n1 [Example 22, (E)-N-[(R)-3-(4-bromo-3-fluoro-phenyl)-2-oxo-oxazolidin-5-ylmethyl]-3-(6-methoxy-[1,5]naphthyridin-4-yl)-N-methyl-acrylamide] | ≤ 0.063
21 | COc1ccc2nccc(/C=C/CNC[C@@H]3CN(c4ccc5c(c4)OCCO5)C(=O)O3)c2n1 [Example 29, (R)-3-(2,3-dihydro-benzo[1,4]dioxin-6-yl)-5-{[(E)-3-(6-methoxy-[1,5]naphthyridin-4-yl)-allylamino]-methyl}-oxazolidin-2-one] | ≤ 0.063
22 | COc1ccc2nccc(C(=O)CCCCC3CN(c4ccc5c(c4)OCCO5)C(=O)O3)c2n1 (racemic) [Example 63, rac-3-(2,3-dihydro-benzo[1,4]dioxin-6-yl)-5-[5-(6-methoxy-[1,5]naphthyridin-4-yl)-5-oxo-pentyl]-oxazolidin-2-one] | ≤ 0.063
23 | COc1cnc2cccc(CCCN(C)C[C@@H]3CN(c4ccc(C)c(F)c4)C(=O)O3)c2c1 [Example 43, (R)-3-(3-fluoro-4-methyl-phenyl)-5-({[3-(3-methoxy-quinolin-5-yl)-propyl]-methyl-amino}-methyl)-oxazolidin-2-one] | ≤ 0.063
24 | CCC(=O)N(CCCc1ccnc2ccc(OC)nc12)C[C@@H]1CN(c2ccc3c(c2)NC(=O)CS3)C(=O)O1 [Example 38, N-[3-(6-methoxy-[1,5]naphthyridin-4-yl)-propyl]-N-[(R)-2-oxo-3-(3-oxo-3,4-dihydro-2H-benzo[1,4]thiazin-6-yl)-oxazolidin-5-ylmethyl]-propionamide] | ≤ 0.063
25 | COc1cnc2cccc(CCC(=O)NC[C@@H]3CN(c4ccc5c(c4)NC(=O)CS5)C(=O)O3)c2c1 [Example 28, 3-(3-methoxy-quinolin-5-yl)-N-[(R)-2-oxo-3-(3-oxo-3,4-dihydro-2H-benzo[1,4]thiazin-6-yl)-oxazolidin-5-ylmethyl]-propionamide] | ≤ 0.063
26 | COc1ccc2nccc(CCNCCC3CN(c4ccc5c(c4)OCCO5)C(=O)O3)c2n1 (racemic) [Example 72, (rac)-3-(2,3-dihydro-benzo[1,4]dioxin-6-yl)-5-{2-[2-(6-methoxy-[1,5]naphthyridin-4-yl)-ethylamino]-ethyl}-oxazolidin-2-one] | ≤ 0.063
27 | CCc1ccc(N2C[C@@H](CN(C)C(=O)/C=C/c3ccnc4ccc(OC)nc34)OC2=O)cc1 [Example 14, (E)-N-[(R)-3-(4-ethyl-phenyl)-2-oxo-oxazolidin-5-ylmethyl]-3-(6-methoxy-[1,5]naphthyridin-4-yl)-N-methyl-acrylamide] | ≤ 0.063

same assay, conditions: strain S. aureus 29213, cation-adjusted Mueller-Hinton Broth, pH 7.2-7.3

Row | MIC S. aureus 29213 | Compound
28 | ≦0.063 mg/l | COc1ccc2ncc(F)c(CN(CCCC3CN(c4ccc5c(c4)NC(=O)CS5)C(=O)O3)C[C@@H](O)CN(C)C)c2n1 (mixture of isomers) [Example 153, 6-((RS)-5-{3-[((S)-3-dimethylamino-2-hydroxy-propyl)-(3-fluoro-6-methoxy-[1,5]naphthyridin-4-ylmethyl)-amino]-propyl}-2-oxo-oxazolidin-3-yl)-4H-1-benzo[1,4]thiazin-3-one]
